# Experiments:
# human cathepsin F = target: T1, human cathepsin F (Homo sapiens, UniProt Q9UBX1); experiment: Cathepsin F assay (hCat F); type: biochemical; conditions: Z-Phe-Arg-AMC substrate, pH 5.5, 15 min preincubation; read-out: hCat F (IP (nM))
# T1 sequence (Q9UBX1 271-484): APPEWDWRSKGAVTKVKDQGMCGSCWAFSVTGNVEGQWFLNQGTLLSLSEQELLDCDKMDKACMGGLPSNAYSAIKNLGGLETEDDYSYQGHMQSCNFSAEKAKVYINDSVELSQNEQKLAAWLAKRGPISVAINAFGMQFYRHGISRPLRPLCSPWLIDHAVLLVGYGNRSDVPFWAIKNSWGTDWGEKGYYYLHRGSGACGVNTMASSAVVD
# Protocol: Cathepsin F assay (hCat F)
# (§1) Serial dilutions (1/3) from 500 μM down to 0.025 μM of test compounds were prepared in dimethyl sulfoxide (DMSO). Then 0.5 μL of DMSO from each dilution were added to 18.75 μL of assay buffer (MES, 50 mM (pH 5.5); EDTA, 2.5 mM; DTT, 2.5 mM and 10% DMSO) containing human cathepsin F (10 nM) in assay buffer solution. The assay solutions were mixed for 5-10 seconds on a shaker plate and incubated for 15 minutes at room temperature. Z-Phe-Arg-AMC (8 μM) in 6.25 μL of assay buffer was added to the assay solutions. Hydrolysis of the coumarin leaving group (AMC) was followed by spectrofluorometry (Exλ=360 nm; Emλ=460 nm) for 20 minutes. Percent of inhibition were calculated by fitting experimental values to standard mathematical model for dose response curve.
# human cathepsin K = human cathepsin K (UniProt P43236); experiment: Cathepsin K Assay (hrbCat K); type: biochemical; conditions: Z-Leu-Arg-AMC substrate, pH 5.5, 15 min preincubation; read-out: hrbCat K (IP (nM))
# Protocol: Cathepsin K Assay (hrbCat K)
# as §1, with “Then” for “Serial dilutions (1/3) from 500 μM down to 0.025 μM of test compounds were prepared in dimethyl sulfoxide (DMSO). Then”, “K (0.4” for “F (10”, “Z-Leu-Arg-AMC” for “Z-Phe-Arg-AMC”, “30” for “20”
IC50 (human cathepsin F) [nM],IC50 (human cathepsin K) [nM],Compound
229,2.1,"N#CCNC(=O)C1CCCCC1c1nc(-c2ccccc2)sc1-c1ccc(N2CCS(=O)(=O)CC2)cc1 (racemic) [Example 247, N-(cyanomethyl)-2-(5-(4-(1,1-dioxidothiomorpho-lino)phenyl)-2-phenylthiazol-4-yl)cyclohexane-carboxamide]"
225,0.7,"N#CC1(NC(=O)[C@@H]2CC3CC3C[C@H]2c2nc(-c3cncc(F)c3)sc2-c2ccc(N3CCS(=O)(=O)CC3)cc2)CC1 (single isomer, unassigned) [Compound 3, (1S or 1R,3R,4R,6R or 6S)-N-(1-Cyanocyclopropyl)-4-(5-(4-(1,1-dioxidothiomorpholino)phenyl)-2-(5-fluoropyridin-3-yl)thiazol-4-yl)bicyclo[4.1.0]heptane-3-carboxamide]"
439,0.9,"N#CC1(NC(=O)[C@@H]2CC3CC3C[C@H]2c2nc(-c3cncc(F)c3)sc2-c2ccc(N3CCS(=O)(=O)CC3)cc2)CC1 (single isomer, unassigned) [Compound 4, (1R or 1S,3R,4R,6S or 6R)-N-(1-Cyanocyclopropyl)-4-(5-(4-(1,1-dioxidothiomorpholino)phenyl)-2-(5-fluoropyridin-3-yl)thiazol-4-yl)bicyclo[4.1.0]heptane-3-carboxamide]"
632,1.7,"N#CC1(NC(=O)[C@@H]2CC3CC3C[C@H]2c2nc(-c3ccc(F)cn3)sc2-c2ccc(N3CCS(=O)(=O)CC3)cc2)CC1 (single isomer, unassigned) [Example 100, (1S or 1R,3R,4R,6R or 6S)-N-(1-cyanocyclopropyl)-4-(5-(4-(1,1-dioxidothiomorpho-lino)phenyl)-2-(5-fluoropyridin-2-yl)thiazol-4-yl)bicyclo[4.1.0] heptane-3-carboxamide]"
371,0.8,"N#CC1(NC(=O)[C@@H]2CC3CC3C[C@H]2c2nc(-c3ccc(F)cn3)sc2-c2ccc(N3CCS(=O)(=O)CC3)cc2)CC1 (single isomer, unassigned) [Example 105, (1R or 1S,3R,4R,6S or 6R)-N-(1-cyanocyclopropyl)-4-(5-(4-(1,1-dioxidothiomorpho-lino)phenyl)-2-(5-fluoropyridin-2-yl)thiazol-4-yl)bicyclo[4.1.0] heptane-3-carboxamide]"
258,0.6,"N#CC1(NC(=O)[C@@H]2CC3CC3C[C@H]2c2nc(-c3cncc(Cl)c3)sc2-c2ccc(N3CCS(=O)(=O)CC3)cc2)CC1 (single isomer, unassigned) [Example 109, (1S or R,3R,4R,6R or S)-4-(2-(5-chloropyridin-3-yl)-5-(4-(1,1-dioxidothiomorpho-lino)phenyl)thiazol-4-yl)-N-(1-cyanocyclopropyl) bicyclo[4.1.0]heptane-3-carboxamide]"
225,0.7,"N#CC1(NC(=O)[C@@H]2CC3CC3C[C@H]2c2nc(-c3cncc(F)c3)sc2-c2ccc(N3CCS(=O)(=O)CC3)cc2)CC1 (single isomer, unassigned) [Example 111, (1S or 1R,3R,4R,6R or 6S)-N-(1-cyanocyclopropyl)-4-(5-(4-(1,1-dioxidothiomorpho-lino)phenyl)-2-(5-fluoropyridin-3-yl)thiazol-4-yl)bicyclo[4.1.0] heptane-3-carboxamide]"
439,0.9,"N#CC1(NC(=O)[C@@H]2CC3CC3C[C@H]2c2nc(-c3cncc(F)c3)sc2-c2ccc(N3CCS(=O)(=O)CC3)cc2)CC1 (single isomer, unassigned) [Example 112, (1R or 1S,3R,4R,6S or 6R)-N-(1-cyanocyclopropyl)-4-(5-(4-(1,1-dioxidothiomorpho-lino)phenyl)-2-(5-fluoropyridin-3-yl)thiazol-4-yl)bicyclo[4.1.0] heptane-3-carboxamide]"
482,0.8,"N#CC1(NC(=O)[C@@H]2CC3CC3C[C@H]2c2nc(-c3cncc(Cl)c3)sc2-c2ccc(N3CCS(=O)(=O)CC3)cc2)CC1 (single isomer, unassigned) [Example 113]"
1760,1.7,"CC(C#N)NC(=O)[C@@H]1C[C@@H](F)CC[C@H]1c1nc(-c2cncc(F)c2)sc1-c1ccc(N2CCS(=O)(=O)CC2)cc1 (single isomer, unassigned) [Example 126, (1R,2R,5S)-N-((S or R)-1-cyanoethyl)-2-(5-(4-(1,1-dioxidothiomorpho-lino)phenyl)-2-(5-fluoropyridin-3-yl)thiazol-4-yl)-5-fluorocyclohexane-carboxamide]"
≥ 10000,42.5,"CC(C#N)NC(=O)[C@@H]1C[C@@H](F)CC[C@H]1c1nc(-c2cncc(F)c2)sc1-c1ccc(N2CCS(=O)(=O)CC2)cc1 (single isomer, unassigned) [Example 127, (1R,2R,5S)-N-((R or S)-1-cyanoethyl)-2-(5-(4-(1,1-dioxidothiomorpho-lino)phenyl)-2-(5-fluoropyridin-3-yl)thiazol-4-yl)-5-fluorocyclohexane-carboxamide]"
695,1.3,"N#CC(NC(=O)[C@@H]1CCCC[C@H]1c1nc(-c2ccc(F)cn2)sc1-c1ccc(N2CCS(=O)(=O)CC2)cc1)C1CCOCC1 (single isomer, unassigned) [Example 185, (1R,2R)-N-((R or S)-cyano(tetrahydro-2H-pyran-4-yl)methyl)-2-(5-(4-(1,1-dioxidothiomorpho-lino)phenyl)-2-(5-fluoropyridin-2-yl)thiazol-4-yl)cyclohexane-carboxamide]"
≥ 10000,1900,"N#CC(NC(=O)[C@@H]1CCCC[C@H]1c1nc(-c2ccc(F)cn2)sc1-c1ccc(N2CCS(=O)(=O)CC2)cc1)C1CCOCC1 (single isomer, unassigned) [Example 186, (1R,2R)-N-((S or R)-cyano(tetrahydro-2H-pyran-4-yl)methyl)-2-(5-(4-(1,1-dioxidothiomorpho-lino)phenyl)-2-(5-fluoropyridin-2-yl)thiazol-4-yl)cyclohexane-carboxamide]"
≥ 10000,3820,"CC(C)C(C#N)NC(=O)[C@@H]1CCCC[C@H]1c1nc(-c2ccc(F)cn2)sc1-c1ccc(N2CCS(=O)(=O)CC2)cc1 (single isomer, unassigned) [Example 187, (1R,2R)-N-((S or R)-1-cyano-2-methylpropyl)-2-(5-(4-(1,1-dioxidothiomorpho-lino)phenyl)-2-(5-fluoropyridin-2-yl)thiazol-4-yl)cyclohexane-carboxamide]"
6710,15.3,"CCC(C#N)NC(=O)[C@@H]1CCCC[C@H]1c1nc(-c2ccc(F)cn2)sc1-c1ccc(N2CCS(=O)(=O)CC2)cc1 (single isomer, unassigned) [Example 188, (1R,2R)-N-((S or R)-1-cyanopropyl)-2-(5-(4-(1,1-dioxidothiomorpho-lino)phenyl)-2-(5-fluoropyridin-2-yl)thiazol-4-yl)cyclohexane-carboxamide]"
691,1.5,"CC(C)C(C#N)NC(=O)[C@@H]1CCCC[C@H]1c1nc(-c2ccc(F)cn2)sc1-c1ccc(N2CCS(=O)(=O)CC2)cc1 (single isomer, unassigned) [Example 191, (1R,2R)-N-((R or S)-1-cyano-2-methylpropyl)-2-(5-(4-(1,1-dioxidothiomorpho-lino)phenyl)-2-(5-fluoropyridin-2-yl)thiazol-4-yl)cyclohexane-carboxamide]"
